Data published in the NIST ThermoML archive (doi:10.1016/j.tca.2014.05.014).
Numbers after ± are expanded uncertainties.

Test: mn = molality of the nth substance listed, in mol/kg
Conditions: 101 kPa, Liquid; for speed of sound: Frequency=3 MHz, Sing-around technique in a fixed-path interferometer; for mass density: Vibrating tube method

CC(=O)NCC(=O)O [N-acetylglycine] + O
Conditions | mass density, 288.15 K [kg/m3] | mass density, 293.15 K [kg/m3] | mass density, 298.15 K [kg/m3] | mass density, 303.15 K [kg/m3] | mass density, 308.15 K [kg/m3] | speed of sound, 288.15 K [m/s] | speed of sound, 293.15 K [m/s] | speed of sound, 298.15 K [m/s] | speed of sound, 303.15 K [m/s] | speed of sound, 308.15 K [m/s]
m1 = 0.0203 | 1000.3 ± 0.17 | 999.25 ± 0.17 | 997.843 ± 0.17 | 996.325 ± 0.17 | 994.871 ± 0.17 | 1467.5 ± 1.2 | 1483.6 ± 1.2 | 1497.7 ± 1.2 | 1510 ± 1.2 | 1520.3 ± 1.2
m1 = 0.06014 | 1001.63 ± 0.17 | 1000.6 ± 0.17 | 999.038 ± 0.17 | 997.499 ± 0.17 | 996.032 ± 0.17 | 1469.4 ± 1.2 | 1485.4 ± 1.2 | 1499 ± 1.2 | 1511.4 ± 1.2 | 1521.5 ± 1.2
m1 = 0.1002 | 1002.81 ± 0.17 | 1001.87 ± 0.17 | 1000.36 ± 0.17 | 998.819 ± 0.17 | 997.262 ± 0.17 | 1471.4 ± 1.2 | 1486.8 ± 1.2 | 1500.5 ± 1.2 | 1512.4 ± 1.2 | 1522.6 ± 1.2
m1 = 0.1403 | 1004 ± 0.17 | 1003.13 ± 0.17 | 1001.63 ± 0.17 | 1000.17 ± 0.16 | 998.641 ± 0.17 | 1473.3 ± 1.2 | 1488.9 ± 1.2 | 1502.1 ± 1.2 | 1514.2 ± 1.2 | 1524 ± 1.2
m1 = 0.1695 | 1004.75 ± 0.17 | 1003.97 ± 0.17 | 1002.73 ± 0.17 | 1001.25 ± 0.17 | 999.567 ± 0.16 | 1474.8 ± 1.2 | 1489.9 ± 1.2 | 1503.3 ± 1.2 | 1514.9 ± 1.2 | 1524.9 ± 1.2
m1 = 0.2002 | 1005.54 ± 0.17 | 1004.9 ± 0.17 | 1003.76 ± 0.17 | 1002.59 ± 0.17 | 1001.25 ± 0.17 | 1475.9 ± 1.2 | 1491.4 ± 1.2 | 1504.2 ± 1.2 | 1515.6 ± 1.2 | 1525.8 ± 1.2
